The test addresses T1, LXRα and LXRβ (Homo sapiens, UniProt P55055+Q13133).
T1 construct: made in house
T1 sequence (Q13133 188-447 limits assumed): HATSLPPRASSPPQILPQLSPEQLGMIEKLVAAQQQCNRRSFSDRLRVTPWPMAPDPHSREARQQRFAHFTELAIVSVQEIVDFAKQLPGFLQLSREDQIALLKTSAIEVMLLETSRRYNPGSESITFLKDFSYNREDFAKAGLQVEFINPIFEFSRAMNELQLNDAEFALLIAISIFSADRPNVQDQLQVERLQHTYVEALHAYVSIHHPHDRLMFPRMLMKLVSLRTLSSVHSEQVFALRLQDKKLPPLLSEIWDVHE
T1 sequence (P55055 197-460 limits assumed): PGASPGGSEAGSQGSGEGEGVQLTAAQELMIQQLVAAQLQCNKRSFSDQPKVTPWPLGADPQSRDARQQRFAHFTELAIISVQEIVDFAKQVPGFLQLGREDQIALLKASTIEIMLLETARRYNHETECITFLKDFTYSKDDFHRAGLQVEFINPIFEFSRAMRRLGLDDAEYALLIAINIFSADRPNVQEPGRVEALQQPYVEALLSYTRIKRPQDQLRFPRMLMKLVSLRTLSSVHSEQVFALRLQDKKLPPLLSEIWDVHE
T1 sequence (Q15788 676-700 partner limits assumed): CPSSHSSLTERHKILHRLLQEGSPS
The test can be described thus: High throughput FRET co-activator (SRC-1) recruitment assay, multiplexed. It counts as biochemical. The conditions noted are these: 10 uM, positive control; negative control DMSO around 0. The method, then:
FIG. 9. is a scatter plot of a co-activator recruitment assay showing fluorescence emitted from APC at 665 nm in a FRET based (biochemical) co-factor recruitment assay that detects the binding of the SCR-1 co-activator to […]. In this assay, recruitment of SCR-1 to both LXRα and LXRβ were simultaneously assayed.
High through FRET cofactor interaction assays were performed in 96 or 384 well assay well plates using automated liquid handling and analysis. Screens for LXR were performed using the protocol below. Equivalent screens for FXR were performed using the FXR (SEQ.ID. No. 4) ligand binding domain in place of LXRα and LXRβ LBD and at a concentration of 8 nM per well.
1. Partially purified recombinant protein comprising glutathione-S-transferase fused in frame to the LXR-ligand binding domain (comprising amino acids 188-447 of human LXRα (SEQ. ID. No. 6), or amino acids 198-461 of human LXRβ (SEQ. ID. No. 7)).
2. Biotinylated peptide containing a SRC-1 receptor interaction motif(B-SRC-1) (SEQ. ID. No. 46).
3. […]
d) Plates were read using an LJL Analyst, or similar instrument, using the following conditions: Channel 1: The excitation wavelength was set to 330 nm, emitted light was collected at 615 nm, with 100 flashes per well, an integration time of 1000 μs; a 10 msec interval between flashes, and a delay after flashes of 200 μs. […]

SMILES strings stand for the structures.

For `CC(C)CC[C@@H](O)[C@@H](C)[C@H]1CC[C@H]2[C@@H]3CC=C4C[C@@H](O)CC[C@]4(C)[C@H]3CC[C@]12C` [22-R-Hydroxy-Cholesterol], the “fluorescence emitted from APC at 665 nm (SRC-1 recruitment, Spotfire scale)” value was “around 100”.

(Values after patent publication US20030228607A1, “Screening method and modulators having an improved therapeutic profile” (priority 2002, published 2003).)
